Data: ChEMBL document CHEMBL4196245, “Structures and Antimutagenic Effects of Onoceranoid-Type Triterpenoids from the Leaves of Lansium domesticum” (2018)
Active and inactive are the calls of the source. The calls are words filed in the database; no cut-off is given here.

Columns and labels:
[1] = organism: Mus musculus; assay: Antimutagenic activity against PhIP-induced mutation in ICR mouse assessed as reduction in micronucleated reticulocytes at 0.03 to 0.06% w/w treated prior to PhIP addition measured 24 to 48 hrs post dose by fluorescence microscopic analysis; type: functional, organism-based
[2] = system: Salmonella typhimurium; assay: Antimutagenic activity against Salmonella typhimurium TA98 assessed as inhibition of Trp-P-1-induced mutation at 100 nmol/plate measured in presence of S9 fraction by Ames test relative to control; type: functional, Salmonella enterica subsp. enterica serovar Typhimurium
[3] = system: Salmonella typhimurium; assay: Antimutagenic activity against Salmonella typhimurium TA98 assessed as inhibition of Trp-P-1-induced mutation at 80 nmol/plate measured in presence of S9 fraction by Ames test relative to control; type: functional, Salmonella enterica subsp. enterica serovar Typhimurium

Row | Compound | inhibition (INH) [2] [%] | further results
1 | C=C(C)[C@@H]1CC=C(C)[C@H](CC[C@H]2C(=C)CC[C@H]3C(C)(C)C(=O)CC[C@]23C)[C@@]1(C)CCC(=O)O |  | Activity [1]: Active
2 | C=C(C)[C@@H]1CC=C(C)[C@H](CC[C@H]2C(=C)CC[C@H]3C(C)(C)[C@@H](O)CC[C@]23C)[C@@]1(C)CCC(=O)O | 73.8 | 
3 | COc1ccc(-c2cc(=O)c3c(OC)c(OC)c(OC)c(OC)c3o2)cc1OC [NOBILETIN] |  | inhibition (INH) [3]: 56%
4 | C=C(C)[C@@H]1CC=C(C)[C@H](CC[C@H]2C(=C)CC[C@H]3C(C)(C)[C@@H](O)CC[C@]23C)[C@@]1(C)CCC(=O)OCC [ETHYL LANSIOLATE] | 7.9 | 
5 | C=C(C)[C@@H]1CC=C(C)[C@H](CC[C@H]2C(=C)CC[C@H]3C(C)(C)[C@@H](O)CC[C@]23C)[C@@]1(C)CCC(=O)OC | 29.5 | 
